Experimental data from publication PMC3574223 (Bioorganic & medicinal chemistry, 2013).

Tested on: human aortic smooth muscle cells (HASMCs)
Assay: Intracellular NO determination using DAF-FM DA
Type: cell-based
Settings: increasing ABH concentrations 1 µM-5 mM

N[C@@H](CCCCB(O)O)C(=O)O [ABH, S-2-amino-6-boronic acid]
intracellular NO and/or N2O3 (DAF-FM DA fluorescence): the amount of intracellular NO rises with increasing concentrations of ABH
